Measurements reported in ChEMBL document CHEMBL3044937, “Design, synthesis and acaricidal activity of novel strobilurin derivatives containing pyrimidine moieties” (2010).

How the values were obtained:
Format in all cases: functional
Tetranychus cinnabarinus [1] = test: Acaricidal activity against Tetranychus cinnabarinus (carmine spider mite) infected kidney bean leaf assessed as mortality at 10 mg/l measured after 48 hr in greenhouse conditions relative to control
Tetranychus cinnabarinus [2] = test: Acaricidal activity against Tetranychus cinnabarinus (carmine spider mite) infected kidney bean leaf assessed as mortality at 40 mg/l measured after 48 hr in greenhouse conditions relative to control
Tetranychus cinnabarinus [3] = test: Acaricidal activity against Tetranychus cinnabarinus (carmine spider mite) infected kidney bean leaf assessed as mortality at 600 mg/l measured after 48 hr in greenhouse conditions relative to control
Tetranychus cinnabarinus [4] = test: Acaricidal activity against Tetranychus cinnabarinus (carmine spider mite) infected kidney bean plant assessed as mortality at 200 g a.i./ha measured after 3 days in field conditions relative to control; details: 72 h
Tetranychus cinnabarinus [5] = test: Acaricidal activity against Tetranychus cinnabarinus (carmine spider mite) infected kidney bean plant assessed as mortality at 50 g a.i./ha measured after 21 days in field conditions relative to control; details: 504 h
Tetranychus cinnabarinus [6] = test: Acaricidal activity against Tetranychus cinnabarinus (carmine spider mite) infected kidney bean plant assessed as mortality at 50 g a.i./ha measured after 14 days in field conditions relative to control; details: 336 h
Tetranychus cinnabarinus [7] = test: Acaricidal activity against Tetranychus cinnabarinus (carmine spider mite) infected kidney bean plant assessed as mortality at 50 g a.i./ha measured after 7 days in field conditions relative to control; details: 168 h
Tetranychus cinnabarinus [8] = test: Acaricidal activity against Tetranychus cinnabarinus (carmine spider mite) infected kidney bean plant assessed as mortality at 50 g a.i./ha measured after 3 days in field conditions relative to control; details: 72 h
Tetranychus cinnabarinus [9] = test: Acaricidal activity against Tetranychus cinnabarinus (carmine spider mite) infected kidney bean plant assessed as mortality at 100 g a.i./ha measured after 21 days in field conditions relative to control; details: 504 h
Tetranychus cinnabarinus [10] = test: Acaricidal activity against Tetranychus cinnabarinus (carmine spider mite) infected kidney bean plant assessed as mortality at 100 g a.i./ha measured after 14 days in field conditions relative to control; details: 336 h
Tetranychus cinnabarinus [11] = test: Acaricidal activity against Tetranychus cinnabarinus (carmine spider mite) infected kidney bean plant assessed as mortality at 100 g a.i./ha measured after 7 days in field conditions relative to control; details: 168 h
Tetranychus cinnabarinus [12] = test: Acaricidal activity against Tetranychus cinnabarinus (carmine spider mite) infected kidney bean plant assessed as mortality at 100 g a.i./ha measured after 3 days in field conditions relative to control; details: 72 h
Tetranychus cinnabarinus [13] = test: Acaricidal activity against Tetranychus cinnabarinus (carmine spider mite) infected kidney bean plant assessed as mortality at 200 g a.i./ha measured after 21 days in field conditions relative to control; details: 504 h
Tetranychus cinnabarinus [14] = test: Acaricidal activity against Tetranychus cinnabarinus (carmine spider mite) infected kidney bean plant assessed as mortality at 200 g a.i./ha measured after 14 days in field conditions relative to control; details: 336 h
Tetranychus cinnabarinus [15] = test: Acaricidal activity against Tetranychus cinnabarinus (carmine spider mite) infected kidney bean plant assessed as mortality at 200 g a.i./ha measured after 7 days in field conditions relative to control; details: 168 h

| Compound | mortality at 10 µg/mL (Tetranychus cinnabarinus [1]) | mortality at 40 µg/mL (Tetranychus cinnabarinus [2]) | mortality at 600 µg/mL (Tetranychus cinnabarinus [3]) | further results |
| --- | --- | --- | --- | --- |
| CO/C=C(/C(=O)OC)c1ccccc1COc1cc(C)nc(Nc2ccccc2)n1 | 0% | 0% | 90% | – |
| CO/C=C(/C(=O)OC)c1ccccc1COc1cc(C(F)(F)F)nc(NC2CCCCC2)n1 | 70% | 100% | – | – |
| CO/C=C(/C(=O)OC)c1ccccc1COc1cc(C(F)(F)F)nc(NCc2ccccc2)n1 | 28% | 65% | – | – |
| COC(=O)N(OC)c1ccccc1COc1cc(C(F)(F)F)nc(Nc2ccccc2)n1 | 0% | 0% | 0% | – |
| CO/C=C(/C(=O)OC)c1ccccc1COc1cc(C(F)(F)F)nc(N2CCOCC2)n1 | 0% | 70% | – | – |
| CO/C=C(/C(=O)OC)c1ccccc1COc1cc(C(F)(F)F)nc(N(C)C)n1 | 0% | 0% | – | – |
| CO/C=C(/C(=O)OC)c1ccccc1COc1cc(C(F)(F)F)nc(N2CCCCC2)n1 | 0% | 0% | – | – |
| CO/C=C(/C(=O)OC)c1ccccc1COc1cc(C2CC2)nc(Nc2ccccc2)n1 | 0% | 0% | 90% | – |
| CO/C=C(/C(=O)OC)c1ccccc1COc1cc(C(F)(F)F)nc(NC2CC2)n1 | 0% | 0% | – | – |
| CO/C=C(/C(=O)OC)c1ccccc1COc1cc(C(F)(F)F)nc(NC(C)C)n1 | 64% | 95% | – | – |
| CO/C=C(/C(=O)OC)c1ccccc1COc1cc(C(F)(F)F)nc(Nc2ccccc2)n1 | 85% | 100% | 100% | mortality at 200 g/ha (Tetranychus cinnabarinus [4]): 92.2%; mortality at 50 g/ha (Tetranychus cinnabarinus [5]): 57.5%; mortality at 50 g/ha (Tetranychus cinnabarinus [6]): 87.2%; mortality at 50 g/ha (Tetranychus cinnabarinus [7]): 65.3%; mortality at 50 g/ha (Tetranychus cinnabarinus [8]): 62.3%; mortality at 100 g/ha (Tetranychus cinnabarinus [9]): 94.9%; mortality at 100 g/ha (Tetranychus cinnabarinus [10]): 91.8%; mortality at 100 g/ha (Tetranychus cinnabarinus [11]): 53.1%; mortality at 100 g/ha (Tetranychus cinnabarinus [12]): 78.3%; mortality at 200 g/ha (Tetranychus cinnabarinus [13]): 100%; mortality at 200 g/ha (Tetranychus cinnabarinus [14]): 100%; mortality at 200 g/ha (Tetranychus cinnabarinus [15]): 96.4% |
| CCNc1nc(OCc2ccccc2/C(=C\OC)C(=O)OC)cc(C(F)(F)F)n1 | 0% | 0% | – | – |
| CNc1nc(OCc2ccccc2/C(=C\OC)C(=O)OC)cc(C(F)(F)F)n1 | 0% | 0% | – | – |
| CO/C=C(/C(=O)OC)c1ccccc1COc1nc(Nc2ccccc2)nc(C)c1C | 0% | 0% | 0% | – |
| CNC(=O)N(OC)c1ccccc1COc1cc(C(F)(F)F)nc(Nc2ccccc2)n1 | 0% | 0% | 0% | – |
| CNC(=O)/C(=N/OC)c1ccccc1COc1cc(C(F)(F)F)nc(Nc2ccccc2)n1 | 0% | 0% | 0% | – |
| CO/N=C(/C(=O)OC)c1ccccc1COc1cc(C(F)(F)F)nc(Nc2ccccc2)n1 | 0% | 0% | 100% | – |
| CCN(CC)c1nc(OCc2ccccc2/C(=C\OC)C(=O)OC)cc(C(F)(F)F)n1 | 21% | 65% | – | – |
| CO/C=C(/C(=O)OC)c1ccccc1COc1cc(C(F)(F)F)nc(NCc2ccccc2Cl)n1 | 32% | 81% | – | – |
| CO/C=C(/C(=O)OC)c1ccccc1COc1cc(C(F)(F)F)nc(OC(C)C)n1 | 95% | 100% | 100% | mortality at 50 g/ha (Tetranychus cinnabarinus [5]): 98.2%; mortality at 50 g/ha (Tetranychus cinnabarinus [6]): 93.2%; mortality at 50 g/ha (Tetranychus cinnabarinus [7]): 77.6%; mortality at 50 g/ha (Tetranychus cinnabarinus [8]): 100%; mortality at 100 g/ha (Tetranychus cinnabarinus [9]): 97.9%; mortality at 100 g/ha (Tetranychus cinnabarinus [10]): 90.4%; mortality at 100 g/ha (Tetranychus cinnabarinus [11]): 88%; mortality at 100 g/ha (Tetranychus cinnabarinus [12]): 100% |
